According to patent publication US6642201B1, “Use of a dipeptide for stimulating repair processes” (priority 1998, dated 2003):
Marks after values point to notes of the source that are not given here. Where a SMILES comes first, the peptide text is derived from it.

Legend:
[1] = test system: purulent incised crushed wounds of the femural soft tissues; assay: Healing of purulent incised crushed wounds of the soft tissues; format: in vivo, shinshilla rabbits; parameters: key: 1 point - absent; 2 points - single (traces); 3 points - few; 4 points - diffuse (moderately); 5 points - many-,; 6 points - very many; conditions: rabbits, 1 μkg i.m. daily 5 days
Text: (§1) The efficacy of L-Lys-L-Glu dipeptide was estimated on the model of purulent incised crushed wounds of the femural soft tissues in shinshilla rabbits of both sexes with body weight 2-3 kg. Therefore, the rabbits underwent shaving in the area of femural soft tissues with subsequent incision 5 cm long and 2 sm deep. Soft tissues (muscles, subcutaneous fat) were crushed with Kocher 's forcepts and infected with the pathogenic mixture Staphylococcus aureus, strain 186. Afterwards, the wound was sutured. In 72 hours the sutures were lifted; and the wound was treated with 3% solution of hydrogen peroxide.
(§2) The animals of experimental group were injected intramuscularly every day for five days with dipeptide L-Lys-L-Glu in a single dose 1 μkg per injection. Control rabbits were injected with sodium chloride solution according to the same scheme. In the process of treatment the wounds were treated with antiseptic remedies for external use.
(§3) The estimation of L-Lys-L-Glu dipeptide efficacy in the dynamics of the inflammatory process regression was based on the terms of crust rejection and wound clearance from the pyo-necrotic mass, and appearance of the granular tissue in the wound and beginning of edge epithelization. […] The activity of tissue enzymes was also estimated (5,6,7).

white outbred male mice = assay: Acute toxicity according to Kerber, single intramuscular administration; format: in vivo
Experimental: The study of the general toxic activity of dipeptide L-Lys-L-Glu was conducted in compliance with “The rules of pre-clinical estimation of safety of pharmacological Substances (GLP)”—
The purpose of the study consisted of the identification of tolerable toxic doses of the drug, estimation of stage and character of pathological alterations in various organs and systems of the organism and determination of correlation between toxic effect related to dose and duration of drug application.
The estimation of acute toxicity of dipeptide L-Lys-L-Glu was conducted according to Kerber. The study was carried out on 66 white outbred male mice with body weight 20-23 g, kept under standard regimen and fed with standard chow in the vivarium. The animals were divided at random into 6 equal groups of 11 mice each. The animals were exposed to single administration of the drug intramuscularly, 0.25 ml in doses 1 mg/kg, 2 mg/kg, 3 mg/kg, 4 mg/kg, 5 mg/kg, several thousand times exceeding therapeutic dose recommended for clinical trial. Control animals were administered sodium chloride solution in the same amount.

regenerating liver cells = assay: Compensatory regeneration of the liver after partial hepatectomy; format: in vivo, white outbred male rats
Experimental: The research has been conducted on 26 white outbred male rats weighing 150-200 grams. The animals were divided into thee following groups:
3 group—rats which had undergone the operation and were subsequently (2 and 24 hours after the operation) administered two subcutaneous injections of L-Lys-L-Glu dipeptide (0,1 μkg per rat).
At the same time, the animals of the first and second groups were made injections of the same volume of the […]. The extracted liver was preserved formalin.
The rats, which had been operated on, were killed by means of ether 32 and 96 hours after the operation. The rats from the control group were killed too, simultaneously. Their livers were preserved in formalin. After staining the preparations with hematoxilin-eosin, the mitotic index in the liver cells was defined, as well as the quantity of polyploid cells in the S-phase cell cycle (the quantity of dividing cells).

[2] = test system: purulent incised crushed wounds of the femural soft tissues; assay: Healing of purulent incised crushed wounds of the soft tissues; format: in vivo, shinshilla rabbits; parameters: key: 1 point - absent; 2 points - single (traces); 3 points - few; 4 points - diffuse (moderately); 5 points - many-;; 6 points - very many; conditions: rabbits, 1 μkg i.m. daily 5 days
Text: as §1, §2, §3

[3] = test system: purulent incised crushed wounds of the femural soft tissues; assay: as above; format: in vivo, shinshilla rabbits; parameters: key to Fibroblasts / Histiocytes / Leukocyles / Macrophases / Necrosis: 1 point - absent; 2 points - single (traces); 3 points - few; 4 points - diffuse (moderately); 5 points - many-,; 6 points - very many
Text: as §1, §2, §3

[4] = 32 hours After partial hepatectomy, 0,1 μkg per rat s.c. at 2 and 24 hours
[5] = 32 hours group, Before (pre-operation index)
[6] = 96 hours After partial hepatectomy, 0,1 μkg per rat s.c. at 2 and 24 hours
[7] = 96 hours group, Before (pre-operation index)
[8] = rabbits, 1 μkg i.m. daily 5 days
[9] = rabbits, 1 μkg i.m. daily 5 days, day 6
[10] = rabbits, 1 μkg i.m. daily 5 days, day 14
[11] = rabbits, 1 μkg i.m. daily 5 days, day 21
[12] = rabbits, 1 μkg i.m. daily 5 days, day 29
[13] = rabbits, 1 μkg i.m. daily 5 days, day 40

NCCCC[C@H](N)C(=O)N[C@@H](CCC(=O)O)C(=O)O [L-Lys-L-Glu dipeptide, L-lysil-L-glutamic acid] (H-Lys-Glu-OH)
Alcaline phosphotase in leukocytes ([1]; day 6): 6* | Alcaline phosphotase in vessels ([1]; day 6): 6* | Acid phosphotase in histiocytes ([1]; day 14): 6* | Alcaline phosphotase in leukocytes ([1]; day 14): 6* | Alcaline phosphotase in leukocytes ([1]; day 28): 6 | Alcaline phosphotase in vessels ([1]; day 28): 4 | Alcaline phosphotase in vessels ([1]; day 40): 4* | toxic effects (white outbred male mice; doses several thousand times exceeding the therapeutic): does not induce any toxic effects | changes in general state, behavior, locomotor activity, integument, physiological discharges (white outbred male mice; mice, single i.m. 1-5 mg/kg, 72 hours and 14 days): No changes in the general state, behavior, locomotor activity, hairy or skin integument or physiological discharges | animal deaths (white outbred male mice; mice, single i.m. 1-5 mg/kg, in 72 hours and in 14 days): none of the animals in either of the groups died | % of cells in the phase of DNA synthesis (regenerating liver cells; [4]): 3.882 ± 0.8391″ % | Mitotic index (regenerating liver cells; [4]): 2.314 ± 0.4611 % | Total number of dividing cells (regenerating liver cells; [4]): 6.196 ± 1.279 % | increasing number of mitoses, DNA-synthesizing cells and overall amount of dividing cells (regenerating liver cells; 32 hours after partial hepatectomy): does become trustworthy | % of cells in the phase of DNA synthesis (regenerating liver cells; [5]): 0.870 ± 0.100% | Total number of dividing cells (regenerating liver cells; [5]): 1.320 ± 0.159% | Mitotic index (regenerating liver cells; 32 hours group, Before (pre-operation index), % of the total number of liver cells): 0.450 ± 0.067% | % of cells in the phase of DNA synthesis (regenerating liver cells; [6]): 4.664 ± 1.315 % | Mitotic index (regenerating liver cells; [6]): 4.846 ± 0.334*& % | Total number of dividing cells (regenerating liver cells; [6]): 9.510 ± 1.609 % | number of cells in the S-phase compared to the second (control) group (regenerating liver cells; 96 hours after hepatectomy): did not differ reliably | number of dividing cells bigger than with rats injected with the sodium hydrochloride (regenerating liver cells; 96 hours after hepatectomy): 75% | number of mitoses compared to rats injected with the sodium hydrochloride (regenerating liver cells; 96 hours after hepatectomy): twice as big | % of cells in the phase of DNA synthesis (regenerating liver cells; [7]): 0.982 ± 0.141% | Mitotic index (regenerating liver cells; [7]): 0.294 ± 0.084% | Acid phosphotase in histiocytes ([2]; day 6): 5* | Alcaline phosphotase in vessels ([2]; day 14): 5 | Acid phosphotase in histiocytes ([2]; day 21): 5 | Alcaline phosphotase in leukocytes ([2]; day 21): 5 | Alcaline phosphotase in vessels ([2]; day 21): 5* | Acid phosphotase in histiocytes ([2]; day 28): 5* | Acid phosphotase in histiocytes ([2]; day 40): 5* | Alcaline phosphotase in leukocytes ([2]; day 40): 5 | activity of acid phosphatase in histiocytes ([3]; phase of proliferation (14-28 days)): high activity of acid phosphatase in histiocytes | Terms of complete clearance of the wound surface from necrotizing tissues [3, 8]: 14.2 + −1.3* days | Terms of the wound epithelization [3, 8]: 24.9 + −1.9* days | Terms of tile onset of necrotizing tissue rejection form the wound surface [3, 8]: 8.3 + −1.1* | Fibroblasts [3, 9]: 4* | Histiocytes [3, 9]: 4 | Leukocyles [3, 9]: 5 | Macrophases [3, 9]: 3 | Necrosis [3, 9]: 3* | Fibroblasts [3, 10]: 5* | Histiocytes [3, 10]: 5* | Leukocyles [3, 10]: 5 | Macrophases [3, 10]: 3 | Necrosis [3, 10]: 2* | Fibroblasts [3, 11]: 5 | Histiocytes [3, 11]: 5 | Leukocyles [3, 11]: 4 | Macrophases [3, 11]: 2 | Necrosis [3, 11]: 2* | Fibroblasts [3, 12]: 5 | Histiocytes [3, 12]: 4 | Leukocyles [3, 12]: 4* | Macrophases [3, 12]: 2 | Necrosis [3, 12]: 1 | Fibroblasts [3, 13]: 6* | Histiocytes [3, 13]: 6* | Leukocyles [3, 13]: 2 | Macrophases [3, 13]: 2* | Necrosis [3, 13]: 1 | activity of alkaline phosphatase in foci of leukocytory infiltration and vascular endothelium ([3]; rabbits, wound tissue): high activity of alkaline phophotase
